In assay [1] the target is T1, human CB1 receptor (Homo sapiens, UniProt P21554).
T1 construct: expressed in transfected cells; host or cells: HEK293
Nature of the assay: bioSensAll GAPL-Gi2 BRET biosensor assay in HEK293 cells transfected with hCB1; test compound added before EC75-80 of agonist CP55,940 (0.1 nM). The conditions noted are these: vs CP55,940 0.1 nM (EC75-80), read-out: CB1 wt Gi2 IC50. The class given is cell-based. The method in brief:
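Test compounds at 12 doses up to 600 nM preceded a 0.1 nM CP55,940 challenge in hCB1/GAPL-Gi2 HEK293 cells. After overnight 37° C incubation, methoxy e-coelenterazine (2 µM final) was added and the 515/400 nm BRET ratio normalized to positive and negative controls.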
Background: In BRET a luciferase serves as donor, and the signal depends on an acceptor being close.

Assay [2] concerns the target T1, human CB1 receptor. Nature of the assay: bioSensAll β-arrestin2 plasma membrane translocation (+GRK2) BRET biosensor assay in HEK293 cells transfected with hCB1; test compound added before EC75-80 of agonist CP55,940 (100 nM). The format is cell-based. To be noted: βArrestin2 (+GRK2) BRET biosensor, vs CP55,940 100 nM (EC75-80), read-out: CB1 wt βarr2 IC50. An outline of the steps:
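Antagonist mode: compound at 12 concentrations up to 600 nM, then 100 nM CP55,940 3–5 min later, on hCB1-transfected HEK293 cells carrying the β-arrestin2 plasma-membrane biosensor plus GRK2. After overnight 37 °C incubation, 515/400 nm BRET ratio measured with 2 µM methoxy e-CTZ and standardized against positive/negative controls.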

T1 sequence (P21554 whole entry): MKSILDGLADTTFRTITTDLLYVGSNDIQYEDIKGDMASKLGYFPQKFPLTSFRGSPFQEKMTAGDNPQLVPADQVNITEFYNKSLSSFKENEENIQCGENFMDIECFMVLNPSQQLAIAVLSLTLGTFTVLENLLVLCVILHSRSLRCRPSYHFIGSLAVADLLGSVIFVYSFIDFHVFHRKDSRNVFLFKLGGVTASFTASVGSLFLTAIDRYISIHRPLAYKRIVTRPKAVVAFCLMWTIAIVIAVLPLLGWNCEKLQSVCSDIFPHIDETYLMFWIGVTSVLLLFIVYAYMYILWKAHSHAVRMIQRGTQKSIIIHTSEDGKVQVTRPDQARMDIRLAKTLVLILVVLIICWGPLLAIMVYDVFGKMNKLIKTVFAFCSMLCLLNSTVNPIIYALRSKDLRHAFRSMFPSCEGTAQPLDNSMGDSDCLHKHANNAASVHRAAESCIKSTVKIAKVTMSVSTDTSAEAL

The IC50 is the concentration that gives 50% inhibition. In the case of `CC1(C(N)=O)CCN(c2nc(N3CCNC[C@H]3CO)nc3c2nc(-c2ccccc2Cl)n3-c2ccc(Cl)cc2)CC1` [Compound 5, 1-[8-(2-chlorophenyl)-9-(4-chlorophenyl)-2-[(2S)-2-(hydroxymethyl)piperazin-1-yl]purin-6-yl]-4-methyl-piperidine-4-carboxamide], the IC50 came out at 0.961 nM in assay [1] and 16 nM in assay [2].
For `COC1(C(N)=O)CCN(c2nc(OCC(C)(C)O)nc3c2nc(-c2ccccc2Cl)n3-c2ccc(Cl)cc2)CC1` [Compound 213], in that order: 1.85 nM and 7.84 nM.
In the same order, the values of `CO[C@@H]1CCN(c2nc(N3CCC(C)(C(N)=O)CC3)c3nc(-c4ccccc4Cl)n(-c4ccc(Cl)cc4)c3n2)C1` [Compound 91, 1-[8-(2-chlorophenyl)-9-(4-chlorophenyl)-2-[(3R)-3-methoxypyrrolidin-1-yl]purin-6-yl]-4-methyl-piperidine-4-carboxamide] are 0.801 nM and 2.56 nM.
In the same order, the values of `CC(C)(O)COc1nc(N2CCC(C(N)=O)CC2)c2nc(-c3ccccc3Cl)n(-c3ccc(Cl)cc3)c2n1` [Compound 198] are 7.69 nM and 31.5 nM.
For `CC(C)C(=O)Nc1nc(N2CCC(C)(C(N)=O)CC2)c2nc(-c3ccccc3Cl)n(-c3ccc(Cl)cc3)c2n1` [Compound 1, 1-[8-(2-chlorophenyl)-9-(4-chlorophenyl)-2-(2-methylpropanoylamino)purin-6-yl]-4-methyl-piperidine-4-carboxamide], the IC50 is 4.3 nM in assay [1] and 15.2 nM in assay [2].
In the same order, the values of `CN(CCO)c1nc(N(C)CCO)c2nc(-c3ccccc3Cl)n(-c3ccc(Cl)cc3)c2n1` [Compound 200] are 1.72 nM and 25.2 nM.
Turning to `CC1(C(N)=O)CCN(c2nc(N3CC[C@@H](O)C3)nc3c2nc(-c2ccccc2Cl)n3-c2ccc(Cl)cc2)CC1` [Compound 93, 1-[8-(2-chlorophenyl)-9-(4-chlorophenyl)-2-[(3R)-3-hydroxypyrrolidin-1-yl]purin-6-yl]-4-methyl-piperidine-4-carboxamide], the values for the IC50 in assay [1] and in assay [2] were 0.606 nM and 1.43 nM, respectively.
For `NC(=O)C1CCN(c2nc(N3CCC[C@H]3CO)nc3c2nc(-c2ccccc2Cl)n3-c2ccc(Cl)cc2)CC1` [Compound 154], the IC50 in assay [1] came out at 0.813 nM; in assay [2], 7.28 nM.
Turning to `CCNC1(C(N)=O)CCN(c2nc(C(N)=O)nc3c2nc(-c2ccccc2Cl)n3-c2ccc(Cl)cc2)CC1` [Compound 147, 6-(4-carbamoyl-4-(ethylamino)piperidin-1-yl)-8-(2-chlorophenyl)-9-(4-chlorophenyl)-9H-purine-2-carboxamide], the IC50 in assay [1] is 4.1 nM; in assay [2] it was 88.8 nM.
In the same order, the values of `CC1(C(N)=O)CCN(c2nc(N3CCS(=O)(=O)CC3)nc3c2nc(-c2ccccc2Cl)n3-c2ccc(Cl)cc2)CC1` [Compound 16, 1-[8-(2-chlorophenyl)-9-(4-chlorophenyl)-2-(1,1-dioxo-1,4-thiazinan-4-yl)purin-6-yl]-4-methyl-piperidine-4-carboxamide] are 0.315 nM and 1.51 nM.
On to `CC1(C(N)=O)CCN(c2nc(OCCNS(C)(=O)=O)nc3c2nc(-c2ccccc2Cl)n3-c2ccc(Cl)cc2)CC1` [Compound 61, 1-[8-(2-chlorophenyl)-9-(4-chlorophenyl)-2-[2-(methanesulfonamido)ethoxy]purin-6-yl]-4-methyl-piperidine-4-carboxamide], for which the IC50 was 0.645 nM in assay [1] and 16.7 nM in assay [2].
For `Cc1cnn(-c2nc(N3CCC(C)(C(N)=O)CC3)c3nc(-c4ccccc4Cl)n(-c4ccc(Cl)cc4)c3n2)c1` [Compound 3, 1-[8-(2-chlorophenyl)-9-(4-chlorophenyl)-2-(4-methylpyrazol-1-yl)purin-6-yl]-4-methyl-piperidine-4-carboxamide], in that order: 1.38 nM and 12.2 nM.
For `CC1(C(N)=O)CCN(c2nc(N3CCC[C@H]3CO)nc3c2nc(-c2ccc(C#N)nc2)n3-c2ccc(Cl)cc2)CC1` [Compound 130, 1-[9-(4-chlorophenyl)-8-(6-cyano-3-pyridyl)-2-[(2S)-2-(hydroxymethyl)pyrrolidin-1-yl]purin-6-yl]-4-methyl-piperidine-4-carboxamide], in that order: 0.592 nM and 1.2 nM.
In the same order, the values of `Cc1ccncc1-c1nc2c(N3CCC(C)(C(N)=O)CC3)nc(OCC(C)(C)O)nc2n1-c1ccc(Cl)cc1` [Compound 105, 1-[9-(4-chlorophenyl)-2-(2-hydroxy-2-methyl-propoxy)-8-(4-methyl-3-pyridyl)purin-6-yl]-4-methyl-piperidine-4-carboxamide] are 17.8 nM and 760 nM.
For the compound `C[C@H](O)CNc1nc(N2CCC(C)(C(N)=O)CC2)c2nc(-c3ccccc3Cl)n(-c3ccc(Cl)cc3)c2n1` [Compound 84, 1-[8-(2-chlorophenyl)-9-(4-chlorophenyl)-2-[[(2S)-2-hydroxypropyl]amino]purin-6-yl]-4-methyl-piperidine-4-carboxamide], the figures for the IC50 in assay [1] and in assay [2] were 2.1 nM and 11.7 nM, respectively.
In the same order, the values of `CN(CCO)c1nc(OCC(C)(C)O)nc2c1nc(-c1ccccc1Cl)n2-c1ccc(Cl)cc1` [Compound 97] are 25.8 nM and 123 nM.
For the compound `OC[C@@H]1CN(c2nc(N3CCC[C@H]3CO)nc3c2nc(-c2ccccc2Cl)n3-c2ccc(Cl)cc2)CCO1` [Compound 169], the IC50 in assay [1] was 0.532 nM; in assay [2], 2.04 nM.
In the same order, the values of `FC(F)(F)C1CCN(c2nc(OC3CCCOC3)nc3c2nc(-c2ccccc2Cl)n3-c2ccc(Cl)cc2)CC1` (stereo not drawn) [Compound 33, 8-(2-chlorophenyl)-9-(4-chlorophenyl)-2-tetrahydropyran-3-yloxy-6-[4-(trifluoromethyl)-1-piperidyl]purine] are 1.42 nM and 4.98 nM.
For `CCOc1nc(OCC(C)(C)O)nc2c1nc(-c1ccccc1Cl)n2-c1ccc(Cl)cc1` [Compound 99], in that order: 4.51 nM and 36.2 nM.
In the same order, the values of `CN1CCN(c2nc(N(C)CCO)nc3c2nc(-c2ccccc2Cl)n3-c2ccc(Cl)cc2)CC1` [Compound 168] are 1.93 nM and 12 nM.
As for `CC1(C(N)=O)CCN(c2nc(N(CCO)Cc3ccccc3)nc3c2nc(-c2ccccc2Cl)n3-c2ccc(Cl)cc2)CC1` [Compound 12, 1-[2-[benzyl(2-hydroxyethyl)amino]-8-(2-chlorophenyl)-9-(4-chlorophenyl)purin-6-yl]-4-methyl-piperidine-4-carboxamide], the IC50 came out at 0.5 nM in assay [1] and 3.09 nM in assay [2].
In the same order, the values of `CCOC1(C(N)=O)CCN(c2nc(N3CCC[C@H]3CO)nc3c2nc(-c2ccccc2Cl)n3-c2ccc(Cl)cc2)CC1` [Compound 177] are 0.436 nM and 1.88 nM.
In the same order, the values of `C[C@H](CO)Oc1nc(N2CCC(C)(C(N)=O)CC2)c2nc(-c3ccccc3Cl)n(-c3ccc(Cl)cc3)c2n1` [Compound 81, 1-[8-(2-chlorophenyl)-9-(4-chlorophenyl)-2-[(1R)-2-hydroxy-1-methyl-ethoxy]purin-6-yl]-4-methyl-piperidine-4-carboxamide] are 0.896 nM and 4.9 nM.
For the compound `N#Cc1ccc(-c2nc3c(N4CC(C(N)=O)C4)nc(N4CCC[C@H]4CO)nc3n2-c2ccc(Cl)cc2)cn1` [Compound 140], the IC50 is 1.22 nM in assay [1] and 8.69 nM in assay [2].
For `CC(C)Oc1nc(OC(C)C)c2nc(-c3ccccc3Cl)n(-c3ccc(Cl)cc3)c2n1` [Compound 205], in that order: 6.04 nM and 54.6 nM.
For `CC(C)Oc1nc(N(C)CCO)nc2c1nc(-c1ccccc1Cl)n2-c1ccc(Cl)cc1` [Compound 189], in that order: 0.419 nM and 1.35 nM.
In the same order, the values of `CC(C)(O)COc1nc(N2CCC(C)(C(=O)O)CC2)c2nc(-c3ccccc3Cl)n(-c3ccc(Cl)cc3)c2n1` [Compound 220] are 3.47 nM and 23.2 nM.
Take `CCOC1(C(N)=O)CCN(c2nc(N3CCC[C@H]3CO)nc3c2nc(-c2ccc(C#N)nc2)n3-c2ccc(Cl)cc2)CC1` [Compound 133, 1-[9-(4-chlorophenyl)-8-(6-cyano-3-pyridyl)-2-[(2S)-2-(hydroxymethyl)pyrrolidin-1-yl]purin-6-yl]-4-ethoxy-piperidine-4-carboxamide]: the IC50 in assay [1] was found to be 0.673 nM; in assay [2], 1.8 nM.
For `CN(CCO)c1nc(N2CCC(C(F)(F)F)CC2)c2nc(-c3ccccc3Cl)n(-c3ccc(Cl)cc3)c2n1` [Compound 161, 1-[[8-(2-chlorophenyl)-9-(4-chlorophenyl)-6-[4-(trifluoromethyl)-1-piperidyl]purin-2-yl]-methyl-amino]-ethan-2-ol], in that order: 0.95 nM and 1.53 nM.
In the same order, the values of `Cc1cnc(-c2nc3c(N4CCC(C)(C(N)=O)CC4)nc(N(C)CCO)nc3n2-c2ccc(Cl)cc2)n1C` [Compound 115, 1-(9-(4-chlorophenyl)-8-(1,5-dimethyl-1H-imidazol-2-yl)-2-((2-hydroxyethyl)(methyl)amino)-9H-purin-6-yl)-4-methylpiperidine-4-carboxamide] are 17.8 nM and 93.6 nM.

For the origin of these results see patent US20250333418A1, “PURINE COMPOUNDS, COMPOSITIONS COMPRISING THEM AND USES THEREOF” (Novo Nordisk A/S, priority 2022, published 2025).
